Assay results from patent US5521156A, “Cyclic neurokinin A antagonists” (priority 1994, dated 1996).
Where a SMILES comes first, the peptide text is derived from it. [ ]: non-standard residue; d: D form.

Biological target: T1, bovine stomach NK-2 receptor (Bos taurus, UniProt P05363)
T1 construct: expressed in transfected cells; host or cells: SKLKB82#3 (mouse fibroblast cell line)
T1 sequence (P05363 1-384): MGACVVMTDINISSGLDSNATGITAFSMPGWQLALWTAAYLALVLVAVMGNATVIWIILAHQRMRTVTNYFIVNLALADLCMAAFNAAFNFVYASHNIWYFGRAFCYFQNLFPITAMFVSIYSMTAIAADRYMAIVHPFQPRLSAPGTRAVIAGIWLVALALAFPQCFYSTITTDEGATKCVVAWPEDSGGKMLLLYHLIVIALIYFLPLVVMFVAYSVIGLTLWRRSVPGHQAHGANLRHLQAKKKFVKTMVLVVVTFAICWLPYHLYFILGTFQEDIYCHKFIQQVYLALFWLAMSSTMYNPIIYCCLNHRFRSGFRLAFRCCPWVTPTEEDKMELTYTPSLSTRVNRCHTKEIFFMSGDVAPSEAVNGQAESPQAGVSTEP
Test: Antagonism of NK-2 receptor mediated phosphatidylinositol turnover in SKLKB82#3 cells
Assay type: cell-based
Details: Schild regression vs NKA, 95% confidence limits 8.22 to 8.69, read-out: pA2 (converted)
Experimental: Cultured SKLKB82#3 (bovine stomach NK-2 receptor transfected into mouse fibroblast cell line) cells were seeded onto 24-well plates at 125,000 cells/well, two-three days prior to assay. Cells were loaded with 0.5 ml of 0.2 μM myo[2-^3 H(N)] inositol (American Radiolabeled Chemicals Inc., specific activity, 20 Ci/mmol) 20-24 hrs prior to assay. Cultured cells were maintained at 37° C. in a 5% CO2 environment. On the day of the assay, media was aspirated and the cells incubated in D-MEM/F-12 media containing 40 μg/ml bacitracin, 4 μg/ml each of leupeptin and chymostatin, 0.1% bovine serum albumin and 1 μM thiorphan and 10 mM LiCl. After 15 min., cyclo[Tyr-trp-Leu-Arg-Trp-Gly] SEQ. ID 6 (concentration range 0.3 nM -10 μM) was added to the cells in a volume of 0.1 ml. […] The third elution was collected and counted in 9 ml scintillation fluid. A 50 μl aliquot of the organic (bottom) phase was removed, dried in a scintillation vial and counted in 7 ml scintillation fluid.
The ratio of DPM in the aqueous phase aliquot (total inositol phosphates) to the DPM in the 50 μl organic phase aliquot (total [^3 H]-inositol incorporated) was calculated for each sample. Data are expressed as a percent of agonist-induced accumulation of [3H]-inositol phosphates over basal leTels. […]

`CC(C)C[C@@H]1NC(=O)[C@@H](Cc2c[nH]c3ccccc23)NC(=O)[C@H](Cc2ccc(O)cc2)NC(=O)CNC(=O)[C@H](Cc2c[nH]c3ccccc23)NC(=O)[C@H](CCCNC(=N)N)NC1=O` [cyclo[Tyr--trp--Leu--Arg--Trp--Gly], cyclo[Tyr-trp-Leu-Arg-Trp-Gly]] (cyclo(GY[dW]LRW)) showed a Kb of 3.55 nM.
